Molecules are shown by their SMILES.

Holding throughout (assay): Kinase selectivity, scanMAX Kinase assay panel (DiscoverX), % control at 1 uM
Assay type in all cases: binding

Assay [1] concerns the target T1, scanMAX Kinase assay panel (Homo sapiens, UniProt P07949, V804M).
T1 construct: purchased DiscoverX
The conditions noted are these: RET (V804M); 1 uM; read-out: Percent Control (%). An outline of the steps: (§1)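 Single-point screen at 1 uM compound in DMSO. Lower % control means stronger inhibition, with the cutoff for activity set at <35%.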

In assay [2] the target is T2, scanMAX Kinase assay panel (Homo sapiens, UniProt P10721, D816H).
T2 construct: purchased DiscoverX
The conditions noted are these: KIT (D816H); 1 uM; read-out: Percent Control (%). An outline of the steps: as §1

Assay [3] deals with T3, scanMAX Kinase assay panel (Homo sapiens, UniProt P27361).
T3 construct: purchased DiscoverX
The following applies: ERK1; 1 uM; read-out: Percent Control (%). The gist of the method:
as §1

Assay [4] has as its target T4, scanMAX Kinase assay panel (Homo sapiens, UniProt P42336, C420R).
T4 construct: purchased DiscoverX
The following applies: PIK3CA (C420R); 1 uM; read-out: Percent Control (%). An outline of the steps:
as §1

Assay [5] addresses T5, scanMAX Kinase assay panel (Homo sapiens, UniProt P42336, H1047Y).
T5 construct: purchased DiscoverX
The following applies: PIK3CA (H1047Y); 1 uM; read-out: Percent Control (%). The gist of the method:
as §1

In assay [6] the target is T6, scanMAX Kinase assay panel (Homo sapiens, UniProt P49761).
T6 construct: purchased DiscoverX
The conditions noted are these: CLK3; 1 uM; read-out: Percent Control (%). The gist of the method:
as §1

For assay [7], the target named is T7, scanMAX Kinase assay panel (Homo sapiens, UniProt P53667).
T7 construct: purchased DiscoverX
The following applies: LIMK1; 1 uM; read-out: Percent Control (%). An outline of the steps:
as §1

In assay [8] the target is T8, scanMAX Kinase assay panel (Homo sapiens, UniProt Q00532).
T8 construct: purchased DiscoverX
The conditions noted are these: CDKL1; 1 uM; read-out: Percent Control (%). The gist of the method: as §1

The target in assay [9] is T9, scanMAX Kinase assay panel (Homo sapiens, UniProt Q04771).
T9 construct: purchased DiscoverX
T9 sequence (Q04771 21-509): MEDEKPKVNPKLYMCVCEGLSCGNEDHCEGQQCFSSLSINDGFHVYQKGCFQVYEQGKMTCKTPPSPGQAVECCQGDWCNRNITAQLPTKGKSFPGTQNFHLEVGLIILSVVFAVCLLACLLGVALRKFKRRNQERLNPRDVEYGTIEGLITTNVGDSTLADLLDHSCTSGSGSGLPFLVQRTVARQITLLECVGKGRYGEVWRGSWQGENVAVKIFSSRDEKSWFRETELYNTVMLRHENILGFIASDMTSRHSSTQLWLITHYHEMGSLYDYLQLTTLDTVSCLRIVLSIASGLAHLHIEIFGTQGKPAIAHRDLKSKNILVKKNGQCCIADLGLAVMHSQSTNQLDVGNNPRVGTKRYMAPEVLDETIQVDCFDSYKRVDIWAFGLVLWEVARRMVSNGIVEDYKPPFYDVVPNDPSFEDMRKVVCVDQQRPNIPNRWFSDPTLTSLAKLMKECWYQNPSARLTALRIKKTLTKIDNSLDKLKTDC
The following applies: ACVR1; 1 uM; read-out: Percent Control (%). The gist of the method:
as §1

The target of assay [10] is T10, scanMAX Kinase assay panel (Homo sapiens, UniProt Q13873).
T10 construct: purchased DiscoverX
T10 sequence (Q13873 27-1038): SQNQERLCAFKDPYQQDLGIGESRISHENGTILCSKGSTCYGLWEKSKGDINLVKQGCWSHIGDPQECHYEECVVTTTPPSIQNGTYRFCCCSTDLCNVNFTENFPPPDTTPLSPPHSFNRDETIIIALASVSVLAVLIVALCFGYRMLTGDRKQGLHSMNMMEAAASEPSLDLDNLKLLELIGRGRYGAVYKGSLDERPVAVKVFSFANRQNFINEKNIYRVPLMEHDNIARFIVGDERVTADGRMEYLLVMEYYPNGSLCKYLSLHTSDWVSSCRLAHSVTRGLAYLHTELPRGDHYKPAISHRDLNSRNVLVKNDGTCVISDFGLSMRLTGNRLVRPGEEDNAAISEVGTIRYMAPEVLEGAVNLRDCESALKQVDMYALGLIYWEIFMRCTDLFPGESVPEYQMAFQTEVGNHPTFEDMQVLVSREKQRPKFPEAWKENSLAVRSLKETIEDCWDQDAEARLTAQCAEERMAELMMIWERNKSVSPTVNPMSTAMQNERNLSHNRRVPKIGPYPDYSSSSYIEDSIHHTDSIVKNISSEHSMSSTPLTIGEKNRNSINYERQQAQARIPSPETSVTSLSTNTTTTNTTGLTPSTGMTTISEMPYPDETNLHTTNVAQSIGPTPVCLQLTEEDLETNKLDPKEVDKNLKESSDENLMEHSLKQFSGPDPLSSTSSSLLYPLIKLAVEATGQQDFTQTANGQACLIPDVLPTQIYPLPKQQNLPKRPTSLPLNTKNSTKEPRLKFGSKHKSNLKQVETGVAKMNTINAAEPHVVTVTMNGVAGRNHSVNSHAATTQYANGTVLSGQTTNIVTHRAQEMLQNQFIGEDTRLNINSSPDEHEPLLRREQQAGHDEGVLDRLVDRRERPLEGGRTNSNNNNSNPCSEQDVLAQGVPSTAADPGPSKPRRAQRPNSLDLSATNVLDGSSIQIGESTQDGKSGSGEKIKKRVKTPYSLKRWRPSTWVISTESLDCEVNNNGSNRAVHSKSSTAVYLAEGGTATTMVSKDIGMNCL
The conditions noted are these: BMPR2; 1 uM; read-out: Percent Control (%). The gist of the method: as §1

In assay [11] the target is T11, scanMAX Kinase assay panel (Homo sapiens, UniProt Q8NI60).
T11 construct: purchased DiscoverX
The conditions noted are these: ADCK3; 1 uM; read-out: Percent Control (%). The gist of the method: as §1

For assay [12], the target named is T12, scanMAX Kinase assay panel (Homo sapiens, UniProt Q9C098).
T12 construct: purchased DiscoverX
The following applies: DCAMKL3; 1 uM; read-out: Percent Control (%). An outline of the steps:
as §1

Assay [13] addresses T13, scanMAX Kinase assay panel (Homo sapiens, UniProt Q9Y2K2).
T13 construct: purchased DiscoverX
The conditions noted are these: QSK; 1 uM; read-out: Percent Control (%). The gist of the method: as §1

Assay [14] addresses T14, scanMAX Kinase assay panel (Homo sapiens, UniProt Q9Y3S1).
T14 construct: purchased DiscoverX
The conditions noted are these: WNK2; 1 uM; read-out: Percent Control (%). The gist of the method: as §1

T4 sequence (P42336 whole entry C420R): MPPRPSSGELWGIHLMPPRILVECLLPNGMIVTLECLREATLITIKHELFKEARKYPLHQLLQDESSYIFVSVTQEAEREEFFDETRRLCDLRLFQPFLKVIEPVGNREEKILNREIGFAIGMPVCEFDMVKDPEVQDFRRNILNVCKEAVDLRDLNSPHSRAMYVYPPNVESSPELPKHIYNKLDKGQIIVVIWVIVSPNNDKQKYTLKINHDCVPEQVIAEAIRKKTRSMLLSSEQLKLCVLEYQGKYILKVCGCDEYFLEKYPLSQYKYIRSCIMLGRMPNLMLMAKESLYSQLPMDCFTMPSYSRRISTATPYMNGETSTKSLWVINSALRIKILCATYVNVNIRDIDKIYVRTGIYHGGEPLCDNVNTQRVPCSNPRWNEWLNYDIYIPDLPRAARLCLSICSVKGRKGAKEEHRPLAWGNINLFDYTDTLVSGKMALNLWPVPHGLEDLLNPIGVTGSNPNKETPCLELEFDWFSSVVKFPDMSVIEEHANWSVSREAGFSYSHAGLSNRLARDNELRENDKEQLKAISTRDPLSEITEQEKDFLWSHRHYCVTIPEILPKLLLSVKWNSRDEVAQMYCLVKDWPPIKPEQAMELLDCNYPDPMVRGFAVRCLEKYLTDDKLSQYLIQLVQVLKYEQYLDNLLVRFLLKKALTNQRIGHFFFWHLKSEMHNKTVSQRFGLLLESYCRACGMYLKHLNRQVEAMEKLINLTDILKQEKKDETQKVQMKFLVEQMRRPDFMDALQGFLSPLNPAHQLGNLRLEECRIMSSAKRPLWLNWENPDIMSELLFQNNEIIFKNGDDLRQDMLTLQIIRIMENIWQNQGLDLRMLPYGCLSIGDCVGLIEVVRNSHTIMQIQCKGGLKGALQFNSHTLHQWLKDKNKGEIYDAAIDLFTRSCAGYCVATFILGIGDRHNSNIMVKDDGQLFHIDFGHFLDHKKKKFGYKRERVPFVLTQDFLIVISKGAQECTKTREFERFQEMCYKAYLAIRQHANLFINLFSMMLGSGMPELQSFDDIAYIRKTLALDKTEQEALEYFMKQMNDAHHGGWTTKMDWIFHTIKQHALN
T2 sequence (P10721 26-976 D816H): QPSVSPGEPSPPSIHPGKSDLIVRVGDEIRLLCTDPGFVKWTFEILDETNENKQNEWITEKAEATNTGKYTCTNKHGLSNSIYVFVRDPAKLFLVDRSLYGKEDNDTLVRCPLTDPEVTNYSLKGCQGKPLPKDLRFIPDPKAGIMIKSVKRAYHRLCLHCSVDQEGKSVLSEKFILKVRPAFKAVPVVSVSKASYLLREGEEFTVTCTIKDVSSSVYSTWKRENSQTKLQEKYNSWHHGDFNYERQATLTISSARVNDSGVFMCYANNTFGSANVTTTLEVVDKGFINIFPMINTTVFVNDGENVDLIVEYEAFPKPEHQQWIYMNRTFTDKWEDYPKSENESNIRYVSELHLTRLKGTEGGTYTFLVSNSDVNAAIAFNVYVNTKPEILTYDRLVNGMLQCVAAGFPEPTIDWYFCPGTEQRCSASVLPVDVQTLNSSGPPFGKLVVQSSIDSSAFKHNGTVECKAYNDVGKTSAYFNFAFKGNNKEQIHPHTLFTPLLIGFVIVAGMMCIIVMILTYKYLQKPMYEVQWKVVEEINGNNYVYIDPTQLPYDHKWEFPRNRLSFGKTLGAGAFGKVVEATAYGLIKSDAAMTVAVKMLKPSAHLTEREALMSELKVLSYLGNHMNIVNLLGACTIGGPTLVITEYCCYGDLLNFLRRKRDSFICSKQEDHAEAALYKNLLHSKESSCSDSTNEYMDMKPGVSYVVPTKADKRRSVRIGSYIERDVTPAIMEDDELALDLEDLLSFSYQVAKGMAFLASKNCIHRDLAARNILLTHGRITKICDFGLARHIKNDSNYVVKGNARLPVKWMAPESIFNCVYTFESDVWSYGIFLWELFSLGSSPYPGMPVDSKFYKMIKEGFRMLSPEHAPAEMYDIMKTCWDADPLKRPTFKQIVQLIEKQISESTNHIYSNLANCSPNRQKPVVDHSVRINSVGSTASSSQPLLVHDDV
T6 sequence (P49761 whole entry): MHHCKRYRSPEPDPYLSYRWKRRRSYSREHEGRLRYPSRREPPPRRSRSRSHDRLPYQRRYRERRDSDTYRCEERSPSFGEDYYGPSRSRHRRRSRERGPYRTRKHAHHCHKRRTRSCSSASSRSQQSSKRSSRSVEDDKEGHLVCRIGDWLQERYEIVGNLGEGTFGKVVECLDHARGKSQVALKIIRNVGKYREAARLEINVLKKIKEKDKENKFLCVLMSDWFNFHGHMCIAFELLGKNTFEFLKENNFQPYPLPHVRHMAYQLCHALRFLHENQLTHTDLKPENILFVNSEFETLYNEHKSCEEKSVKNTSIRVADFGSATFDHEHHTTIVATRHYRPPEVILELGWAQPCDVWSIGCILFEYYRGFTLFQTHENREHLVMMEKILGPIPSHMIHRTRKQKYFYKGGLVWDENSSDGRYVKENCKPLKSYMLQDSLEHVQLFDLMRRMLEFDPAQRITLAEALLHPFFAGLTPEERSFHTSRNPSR
T5 sequence (P42336 whole entry H1047Y): as the sequence (P42336 whole entry C420R) above, with R420C, H1047Y counted along it
T14 sequence (Q9Y3S1 whole entry): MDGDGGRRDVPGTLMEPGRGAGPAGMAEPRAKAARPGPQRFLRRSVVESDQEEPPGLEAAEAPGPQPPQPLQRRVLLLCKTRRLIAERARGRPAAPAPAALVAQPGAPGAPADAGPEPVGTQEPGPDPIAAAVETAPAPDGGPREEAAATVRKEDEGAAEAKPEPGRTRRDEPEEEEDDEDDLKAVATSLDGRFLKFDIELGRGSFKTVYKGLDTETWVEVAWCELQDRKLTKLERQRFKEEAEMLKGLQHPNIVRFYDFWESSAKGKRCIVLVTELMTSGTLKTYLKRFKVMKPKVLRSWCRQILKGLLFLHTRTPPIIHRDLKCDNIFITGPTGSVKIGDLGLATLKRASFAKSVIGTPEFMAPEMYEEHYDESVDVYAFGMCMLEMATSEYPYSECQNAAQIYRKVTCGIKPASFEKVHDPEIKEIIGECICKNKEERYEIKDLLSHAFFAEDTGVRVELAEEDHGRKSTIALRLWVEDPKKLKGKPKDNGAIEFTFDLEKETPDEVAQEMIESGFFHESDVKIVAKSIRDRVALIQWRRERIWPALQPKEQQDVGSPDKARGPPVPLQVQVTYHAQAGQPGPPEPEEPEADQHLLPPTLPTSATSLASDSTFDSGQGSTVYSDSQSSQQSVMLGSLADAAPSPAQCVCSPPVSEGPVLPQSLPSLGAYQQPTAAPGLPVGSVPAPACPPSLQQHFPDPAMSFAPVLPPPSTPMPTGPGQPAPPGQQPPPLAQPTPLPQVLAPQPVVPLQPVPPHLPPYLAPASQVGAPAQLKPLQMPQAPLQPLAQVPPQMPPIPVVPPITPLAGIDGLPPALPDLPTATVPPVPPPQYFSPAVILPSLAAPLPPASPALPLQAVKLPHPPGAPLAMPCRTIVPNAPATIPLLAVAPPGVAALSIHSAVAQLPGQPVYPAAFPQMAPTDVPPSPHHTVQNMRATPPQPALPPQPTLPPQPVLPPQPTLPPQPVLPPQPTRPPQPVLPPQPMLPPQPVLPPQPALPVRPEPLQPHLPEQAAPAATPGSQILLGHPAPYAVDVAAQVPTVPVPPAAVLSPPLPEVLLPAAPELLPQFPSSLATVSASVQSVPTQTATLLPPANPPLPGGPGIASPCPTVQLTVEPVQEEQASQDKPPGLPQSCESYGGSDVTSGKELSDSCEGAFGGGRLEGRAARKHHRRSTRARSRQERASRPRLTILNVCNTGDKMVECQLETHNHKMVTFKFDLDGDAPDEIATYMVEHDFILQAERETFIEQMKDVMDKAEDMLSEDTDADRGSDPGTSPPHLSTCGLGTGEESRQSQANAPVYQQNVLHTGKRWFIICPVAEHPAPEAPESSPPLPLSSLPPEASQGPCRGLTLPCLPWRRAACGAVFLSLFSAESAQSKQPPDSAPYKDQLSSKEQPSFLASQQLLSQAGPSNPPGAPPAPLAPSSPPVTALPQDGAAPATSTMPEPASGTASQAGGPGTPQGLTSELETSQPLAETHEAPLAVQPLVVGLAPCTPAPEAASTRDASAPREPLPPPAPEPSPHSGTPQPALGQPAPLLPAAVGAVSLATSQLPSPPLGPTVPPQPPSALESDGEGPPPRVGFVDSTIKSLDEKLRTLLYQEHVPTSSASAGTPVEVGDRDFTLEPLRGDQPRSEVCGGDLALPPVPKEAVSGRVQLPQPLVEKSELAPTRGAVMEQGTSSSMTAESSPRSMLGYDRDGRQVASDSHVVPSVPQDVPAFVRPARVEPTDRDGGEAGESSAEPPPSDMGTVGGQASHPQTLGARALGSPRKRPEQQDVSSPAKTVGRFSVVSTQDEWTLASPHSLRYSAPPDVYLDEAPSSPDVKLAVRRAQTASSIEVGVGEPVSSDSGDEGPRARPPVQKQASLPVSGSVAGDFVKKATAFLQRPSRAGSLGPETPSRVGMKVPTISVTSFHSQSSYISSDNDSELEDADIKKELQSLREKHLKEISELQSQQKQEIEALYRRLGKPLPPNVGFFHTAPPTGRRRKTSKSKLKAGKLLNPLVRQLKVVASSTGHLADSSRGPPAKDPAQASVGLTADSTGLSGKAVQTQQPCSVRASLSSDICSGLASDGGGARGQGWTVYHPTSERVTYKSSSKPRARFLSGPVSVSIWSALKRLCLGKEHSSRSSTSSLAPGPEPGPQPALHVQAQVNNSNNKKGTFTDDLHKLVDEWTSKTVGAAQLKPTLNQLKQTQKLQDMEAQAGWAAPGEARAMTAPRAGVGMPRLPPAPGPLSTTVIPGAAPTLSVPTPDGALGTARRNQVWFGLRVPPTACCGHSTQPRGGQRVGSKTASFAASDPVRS

Take `Cc1ccc(C(=O)Nc2ccc(CN3CCN(C)CC3)c(C(F)(F)F)c2)cc1C#Cc1cnc2c(Nc3cnn(C)c3)cccn12` [Example 1, 4-methyl-3-((8-((1-methyl-1H-pyrazol-4-yl)amino)imidazo[1,2-a]pyridin-3-yl)ethynyl)-N-(4-((4-methylpiperazin-1-yl)methyl)-3-(trifluoromethyl)phenyl)benzamide]: the remaining binding at 1 µM was determined as 0% in [1]; 7% in assay [2]; 87% in assay [3]; 97% in assay [4]; 74% in assay [5]; 48% in assay [6]. Moreover, the remaining binding at 1 µM amounted to 4% in [7]; 25% in assay [8]; 100% in assay [9]; 82% in [10]; 100% in assay [11]; 98% in [12]. Also, the remaining binding at 1 µM in assay [13] worked out at 89%; in [14] it was 82%.
Take `Cc1cn(-c2cc(NC(=O)c3ccc(C)c(C#Cc4cnc5c(Nc6cnn(C)c6)cccn45)c3)cc(C(F)(F)F)c2)cn1` [Example 12, 4-methyl-N-(3-(4-methyl-1H-imidazol-1-yl)-5-(trifluoromethyl)phenyl)-3-((8-((1-methyl-1H-pyrazol-4-yl)amino)imidazo[1,2-a]pyridin-3-yl)ethynyl)benzamide]: the remaining binding at 1 µM stood at 1% in assay [1]; 70% in assay [2]; 100% in assay [3]; 100% in [4]; 84% in [5]; 100% in assay [6]. Besides, the remaining binding at 1 µM came out at 38% in assay [7]; 60% in assay [8]; 100% in assay [9]; 100% in [10]; 93% in assay [11]; 88% in [12]. Besides, the results for the remaining binding at 1 µM in assay [13] and in assay [14] were 97% and 100%, respectively.
Regarding `Cc1ccc(NC(=O)C2(C(=O)Nc3ccc(F)cc3)CC2)cc1C#Cc1cnc2c(Nc3cnn(C(C)C)c3)cccn12` [Example 78], the remaining binding at 1 µM in assay [1] came out at 100%; in assay [2], 63%; in assay [3], 100%; in [4], 100%; in assay [5] it was 100%; in assay [6], 100%. Also, the remaining binding at 1 µM was 100% in assay [7]; 83% in assay [8]; 100% in [9]; 84% in assay [10]; 100% in [11]; 100% in [12]. Besides, the remaining binding at 1 µM in assay [13] and in assay [14] was 100% throughout.

For the origin of these results see patent US10870647B2, “Imidazopyridine derivative, method for preparing same, and pharmaceutical composition containing same as active ingredient for preventing or treating cancer” (DAEGU-GYEONGBUK MEDICAL INNOVATION FOUNDATION, priority 2016, dated 2020).
